Measured values taken from patent publication US5075287A, “Muramyl peptide derivatives and immunoregulating compositions containing them” (priority 1989, dated 1991).
Where two headings read alike, the source gives them in different places.

Tests used:
[1] = system: hepatitis B virus surface antigen (HBs); assay: Hepatitis-vaccine enhancing activity (adjuvant activity): anti-HBs IgG in mouse serum by ELISA; type: in vivo, female CDF1 mice; settings: Experiment 1, 5000-fold dilution
Method in brief: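 Female CDF1 mice (n=7) given 0.2 ml i.p. of compound in lipid microspheres (1 mg/ml) mixed 1:1 with HBs antigen (50 μg/ml), boosted identically at 3 weeks. Sera from weekly fundus bleeds before and after boost. Anti-HBs IgG measured by ELISA.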

[2] = system: L-1210 mouse leukemia cells; assay: Activation of macrophages (growth inhibition of tumor cells by intraperitoneal macrophages of treated mice, MTT assay); type: cell-based; settings: macrophages taken 3 days after i.p. 0.2 ml of 500 μg/ml, macrophage:L-1210 20:1, 72 hours
[3] = system: influenza HA vaccine (B/Nagasaki/1/87 strain); type: in vivo, female CDF1 mice; settings: Experiment 1, 5000-fold dilution
[4] = 1 W after i.p. administration, compound in lipidmicrosphere + HBs
[5] = 4 W (after secondary stimulation at 3 weeks)
[6] = 5 W (after secondary stimulation at 3 weeks)
[7] = 1 W after i.p. administration, compound in lipidmicrosphere + HA vaccine

Compound	Anti-HBs IgG antibody level in serum (ELISA absorbance at 415 nm) [1, 4]	Anti-HBs IgG antibody level in serum (ELISA absorbance at 415 nm) ([1]; 2 W)	Anti-HBs IgG antibody level in serum (ELISA absorbance at 415 nm) ([1]; 3 W)	Anti-HBs IgG antibody level in serum (ELISA absorbance at 415 nm) [1, 5]	Anti-HBs IgG antibody level in serum (ELISA absorbance at 415 nm) [1, 6]	Growth inhibitory ratio of L-1210 mouse leukemia cells [2]	Anti HA serum antigen value (average value ± S.D.) [3, 7]	Anti HA serum antigen value (average value ± S.D.) ([3]; 2 W)	Anti HA serum antigen value (average value ± S.D.) ([3]; 3 W)	Anti HA serum antigen value (average value ± S.D.) [3, 5]	Anti HA serum antigen value (average value ± S.D.) [3, 6]
CCCCCCCCCCCCCC(=O)O[C@H](CCCCCCCCCCC)CC(=O)S[C@@H]1O[C@H](COC(=O)CCCCCCCCC)[C@@H](O)[C@H](O[C@H](C)C(=O)N[C@@H](C)C(=O)N[C@H](CCC(=O)OC)C(N)=O)[C@H]1NC(C)=O [Example 14, N-[2-0-{2-Acetamido-2,3-dideoxy-6-0-decanoyl-1-S-((3R)-R-tetradecanoyloxytetradecanoyl)-1-thio-β-D-glucopyranos-3yl}-D-lactoyl]-L-alanyl-D-isoglutamine methylester]	0 O.D 415 nm	0.071 ± 0.000 O.D 415 nm	0.104 ± 0.003 O.D 415 nm	0.784 ± 0.022 O.D 415 nm	0.846 ± 0.024 O.D 415 nm	96.4%	0 O.D 415 nm	0.110 ± 0.003 O.D 415 nm	0.186 ± 0.007 O.D 415 nm	0.974 ± 0.006 O.D 415 nm	0.954 ± 0.002 O.D 415 nm
CCCCCCCCCCCCCC(=O)OC[C@H]1O[C@@H](SC(=O)C[C@@H](CCCCCCCCCCC)OC(=O)CCCCCCCCCCCCC)[C@H](NC(C)=O)[C@@H](O[C@H](C)C(=O)N[C@@H](C)C(=O)N[C@H](CCC(=O)OC)C(N)=O)[C@@H]1O [Example 15]	0 O.D 415 nm	0.085 ± 0.002 O.D 415 nm	0.129 ± 0.001 O.D 415 nm	0.788 ± 0.008 O.D 415 nm	0.905 ± 0.020 O.D 415 nm	87.5%	0.007 ± 0.000 O.D 415 nm	0.119 ± 0.005 O.D 415 nm	0.218 ± 0.006 O.D 415 nm	1.249 ± 0.013 O.D 415 nm	1.262 ± 0.017 O.D 415 nm
CCCCCCCCCCCCCCCCCC(=O)OC[C@H]1O[C@@H](SC(=O)C[C@@H](CCCCCCCCCCC)OC(=O)CCCCCCCCCCCCC)[C@H](NC(C)=O)[C@@H](O[C@H](C)C(=O)N[C@@H](C)C(=O)N[C@H](CCC(=O)OC)C(N)=O)[C@@H]1O [Example 16, N-[2-0-{2-Acetamido-2,3-dideoxy-6-0-octadecanoyl-1-S-((3R)-3-tetradecanoyloxytetradecanoyl)-1-thio-β-D-glucopyranos-3-yl}-D-lactoyl]-L-alanyl-D-isoglutamine methylester]	0 O.D 415 nm	0.079 ± 0.004 O.D 415 nm	0.103 ± 0.004 O.D 415 nm	0.850 ± 0.008 O.D 415 nm	0.903 ± 0.021 O.D 415 nm	76.3%	0.001 ± 0.001 O.D 415 nm	0.145 ± 0.004 O.D 415 nm	0.257 ± 0.010 O.D 415 nm	1.251 ± 0.010 O.D 415 nm	1.262 ± 0.026 O.D 415 nm
